# Laboratory results reported in patent publication US8222285B2, “1,3-dihydroxy substituted phenylamide glucokinase activators” (Bristol-Myers Squibb Company, priority 2007, dated 2012).
# Molecular target: T1, human glucokinase (GK) (Homo sapiens, UniProt P35557)
# T1 construct: Full-length human hepatic GK (untagged) was expressed in BL21 STAR (DE3)pLysS cells; made in house; host or cells: E. coli BL21 STAR (DE3)pLysS
# T1 sequence (P35557 1-466 isoform P35557-2): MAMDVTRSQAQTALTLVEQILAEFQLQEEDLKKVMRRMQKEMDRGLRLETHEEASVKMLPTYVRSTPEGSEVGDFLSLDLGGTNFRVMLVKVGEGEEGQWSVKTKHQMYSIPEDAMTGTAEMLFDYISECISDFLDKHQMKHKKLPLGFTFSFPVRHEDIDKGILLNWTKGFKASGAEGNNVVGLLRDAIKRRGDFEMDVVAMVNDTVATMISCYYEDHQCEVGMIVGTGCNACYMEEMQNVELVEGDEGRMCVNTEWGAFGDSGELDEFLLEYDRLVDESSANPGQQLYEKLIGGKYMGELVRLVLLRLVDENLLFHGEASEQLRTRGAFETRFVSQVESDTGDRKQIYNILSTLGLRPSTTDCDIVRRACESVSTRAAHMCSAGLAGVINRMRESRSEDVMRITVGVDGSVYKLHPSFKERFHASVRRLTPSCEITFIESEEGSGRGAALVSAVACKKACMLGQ
# Test: Glucokinase tandem enzymatic assay
# Type: biochemical
# Details: 12 mM glucose; expressed as % of basal activation; EC50 could not be calculated; read-out: Maximal activation (%) Human Glucokinase @ 12 mM Glucose
# Protocol: Glucokinase Tandem Enzymatic Assay
# Enzymatic activity of human glucokinase (GK) was measured by incubating GK, ATP, and glucose for discrete time periods followed by quenching with EDTA (ethylenediamine tetra-acetic acid). Relative amounts of product glucose-6-phosphate (G6P) were measured by then running a detection assay using G6P dehydrogenase and measuring the conversion of ThioNAD (thio-nicotinamide adenine dinucleotide) to ThioNADH (thio-dihydronicotinamide adenine dinucleotide) at a wavelength of 405 nm. This ‘uncoupled’ enzymatic reaction is denoted as the GK ‘tandem’ assay. Activation of GK by compounds can be assessed using this assay. The GK tandem assay protocol described below was followed using a range of activator compound concentrations from 0 to 100 μM at 5 and 12 mM of glucose. Human full-length glucokinase (GK, 15 nM) was incubated with 5 or 12 mM glucose in a 384 well black microtiter plate with a clear bottom. To initiate the GK reaction, magnesium-ATP (3 mM final concentration) was added to GK in buffer (final buffer conditions of 25 mM HEPES buffer, pH 7.1, containing 1 mM dithiothreitol and 5% DMSO). The total reaction volume was 20 μL. The reaction was allowed to proceed for ten minutes and was then quenched with 5 μL EDTA; 45 mM final). The components of the detection reaction, ThioNAD and G6PDH (glucose-6-phosphate dehydrogenase) (final concentrations of 650 μM and 3.33 Units, respectively), were then added together in a volume of 25 μL, (to give a total volume of 50 μL). Absorbance measurements were made at 405 nm on a Spectramax Plus 384 absorbance plate reader (Molecular Devices). Absorbance was read, background glucose-6-phosphate levels were subtracted, after which activation was calculated as a percentage of control activity. Control activity was determined using GK in the presence of vehicle (DMSO), with background glucose-6-phosphate subtracted. Background glucose-6-phosphate was determined by pre-quenching GK with EDTA prior to reaction initiation with ATP.
# Expression and Purification of Human GK
# Full-length human hepatic GK (untagged) was expressed in BL21 STAR (DE3)pLysS cells (Invitrogen) at 25° C. as described by Mookhtiar et al. (1). The protein was purified essentially as described by Lange (2) with a slight modification. Briefly, cell pellets were lysed via three rounds of freezing and thawing, centrifuged at 15000 g for clarification, and precipitated with 40-65% (NH4)2SO4. The resulting pellet was resuspended in buffer, dialyzed, and applied directly to a Q-Sepharose (Sigma) column followed by elution with a linear 100-600 mM KCl gradient. GK containing fractions were pooled, dialyzed overnight vs. 25 mM Hepes pH 7.2/1 mM MgCl2/1 mM EDTA/0.1 M KCl/1 mM DTT, then dialyzed again with same buffer with 10% glycerol added.
row,Emax,Structure (SMILES)
1,124%,CC(C)Oc1cc(Oc2ccc(C(=O)N3CCC3)nc2)cc(C(=O)Nc2ncc(Oc3cccc(C(=O)O)c3)s2)c1 [Example 46]
2,118%,COC[C@H](C)Oc1cc(O[C@@H](C)Cc2ccccc2)cc(C(=O)Nc2ncc(Oc3cccc(C(=O)O)c3)s2)c1 [Example 32]

# Same assay, conditions: 12 mM glucose; full-length human GK 15 nM
row,EC50,Structure (SMILES)
1,171 nM,CC(C)Oc1cc(OC(C)C)cc(C(=O)Nc2ncc(Oc3cccc(C(=O)O)c3)s2)c1 [Example 11]
2,179 nM,CC(C)Oc1cc(OC(C)C)cc(C(=O)Nc2ncc(Oc3ccc(F)nc3)s2)c1 [Example 17]
3,13 nM,COC[C@H](C)Oc1cc(Oc2ccc(S(C)(=O)=O)cc2)cc(C(=O)Nc2ncc(Oc3cccc(C(N)=O)c3)s2)c1 [Example 3]
4,170 nM,CS(=O)(=O)c1ccc(Oc2cc(Oc3ccnc(Cl)c3)cc(C(=O)Nc3ncc(Oc4cccc(C(=O)O)c4)s3)c2)cc1 [Example 42]

# Continued, compound first:
row,Structure (SMILES),EC50
1,CC(C)Oc1cc(Oc2ccc(S(C)(=O)=O)nc2)cc(C(=O)Nc2ncc(Oc3cccc(C(=O)O)c3)s2)c1 [Example 45],34 nM
2,COC[C@H](C)Oc1cc(Oc2ccc(S(C)(=O)=O)cc2)cc(C(=O)Nc2ncc(Oc3cccc(C(=O)N4CCC4)c3)s2)c1 [Example 33],6 nM
3,COC[C@H](C)Oc1cc(Oc2ccc(S(C)(=O)=O)cc2)cc(C(=O)Nc2ncc(Oc3cccc(C(=O)N4CC(O)C4)c3)s2)c1 [Example 34],16 nM
4,COC[C@H](C)Oc1cc(Oc2ccc(S(C)(=O)=O)cc2)cc(C(=O)Nc2ncc(Oc3cccc(C(=O)O)c3)s2)c1 [Example 4],47 nM

# Same assay, conditions: read-out: Maximal activation (%) Human Glucokinase @ 12 mM Glucose
row,Structure (SMILES),Emax
1,CNC(=O)Oc1cccc(Oc2cnc(NC(=O)c3cc(Oc4ccc(S(C)(=O)=O)cc4)cc(O[C@@H](C)COC)c3)s2)c1 [Example 38],144%

# Tested on: male DIO (diet-induced obese) C57BL/6J mice
# Test: Oral glucose tolerance test (OGTT) in DIO mice
# Type: in vivo
# Details: 30 mg/kg oral, 60 min before 2 g/kg oral glucose; ΔAUC 0-120 min; DIO C57BL/6J mice
# Protocol: In Vivo Studies: Oral Glucose Tolerance Test (OGTT)
# Oral glucose tolerance tests were carried out on male DIO (diet-induced obese) C57BL/6J mice fed a high fat diet (60% kcal from fat) for 26 weeks prior to experimentation. Mice were fasted overnight before use for experiments. A test compound or vehicle (10% dimethyl acetamide+10% ethanol+10% Cremophore+70% water) was given orally 60 min before oral administration of a glucose solution at a dose of 2 g/kg body weight (oral glucose tolerance test; OGTT). Blood glucose levels were measured from tail-bled samples taken at different time points before and after administration of glucose (time course of 2 hours). A time curve of the blood glucose was generated and the change from baseline area-under-the curve (ΔAUC) from 0-120 min was calculated (the time glucose administration being time zero).
row,Structure (SMILES),Reduction in Glucose AUC at 30 mg/kg dose
1,COC[C@H](C)Oc1cc(Oc2ccc(S(C)(=O)=O)cc2)cc(C(=O)Nc2ncc(Oc3cccc(C(=O)O)c3)s2)c1 [Example 4],37%
